Test results from patent US12281095B2, “Pesticidally active diazine-amide compounds” (SYNGENTA CROP PROTECTION AG, priority 2019, dated 2025).

Legend:
Format in all cases: in vivo
[1] = system: Chilo suppressalis (Striped Rice Stemborer); assay: Example B4: Chilo suppressalis (Striped Rice Stemborer), artificial diet; conditions: 144 h, application rate of 200 ppm, L2 larvae, 6 days after infestation, read-out: control in at least one of the three categories (mortality, anti-feedant or growth inhibition)
Procedure, shortened: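 Artificial diet was treated with aqueous dilutions made from 10'000 ppm DMSO stocks, dried, then infested with L2 larvae at 6–8 per well. Mortality, antifeedant effect and growth inhibition were assessed against untreated samples 6 days after infestation.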

[2] = system: Tetranychus urticae (Two-Spotted Spider Mite); assay: Example B11: Tetranychus urticae (Two-Spotted Spider Mite), sprayed bean leaf discs; conditions: foliar, 192 h
Description: Example B11: Tetranychus urticae (Two-Spotted Spider Mite)
Bean leaf discs on agar in 24-well microtiter plates were sprayed with aqueous test solutions prepared from 10′000 ppm DMSO stock solutions. After drying the leaf discs were infested with a mite population of mixed ages. The samples were assessed for mortality on mixed population (mobile stages) 8 days after infestation.

[3] = system: Plutella xylostella (Diamondback Moth); assay: Example B13: Plutella xylostella (Diamondback Moth), artificial diet, 96-well; conditions: 216 h, application rate of 500 ppm, eggs/L1 larvae, 9 days after infestation
Description: Example B13: Plutella xylostella (Diamondback Moth)
96-well microtiter plates containing artificial diet were treated with aqueous test solutions, prepared from 10′000 ppm DMSO stock solutions, by a liquid handling robot. After drying, eggs (˜30 per well) were infested onto a netted lid which was suspended above the diet. The eggs hatch and L1 larvae move down to the diet. The samples were assessed for mortality 9 days after infestation.

[4] = system: Diabrotica balteata (Corn Root Worm); assay: Example B1: Diabrotica balteata (Corn Root Worm), sprayed maize sprouts; conditions: 96 h, application rate of 200 ppm, L2 larvae, 4 days after infestation, read-out: control in at least one of the two categories (mortality or growth inhibition)
Description: Example B1: Diabrotica balteata (Corn Root Worm)
Maize sprouts placed onto an agar layer in 24-well microtiter plates were treated with aqueous test solutions prepared from 10′000 ppm DMSO stock solutions by spraying. After drying, the plates were infested with L2 larvae (6 to 10 per well). The samples were assessed for mortality and growth inhibition in comparison to untreated samples 4 days after infestation.

[5] = system: Spodoptera littoralis (Egyptian Cotton Leaf Worm); assay: Example B9: Spodoptera littoralis (Egyptian Cotton Leaf Worm), sprayed cotton leaf discs; conditions: foliar, 72 h, application rate of 200 ppm, L1 larvae, 3 days after infestation, read-out: control in at least one of the three categories (mortality, anti-feedant or growth inhibition)
[6] = system: Plutella xylostella (Diamond Back Moth); assay: Example B5: Plutella xylostella (Diamond Back Moth), artificial diet, 24-well; conditions: 192 h, application rate of 200 ppm, eggs, 8 days after infestation, read-out: control in at least one of the two categories (mortality or growth inhibition)
Description: Example B5: Plutella xylostella (Diamond Back Moth)
24-well microtiter plates with artificial diet were treated with aqueous test solutions prepared from 10′000 ppm DMSO stock solutions by pipetting. After drying, Plutella eggs were pipetted through a plastic stencil onto a gel blotting paper and the plate was closed with it. The samples were assessed for mortality and growth inhibition in comparison to untreated samples 8 days after infestation.

[7] = system: Euschistus heros (Neotropical Brown Stink Bug); assay: Example B2: Euschistus heros (Neotropical Brown Stink Bug), sprayed soybean leaves; conditions: 120 h, application rate of 200 ppm, N2 nymphs, 5 days after infestation, read-out: control in at least one of the two categories (mortality or growth inhibition)
Description: Example B2: Euschistus heros (Neotropical Brown Stink Bug)
Soybean leaves on agar in 24-well microtiter plates were sprayed with aqueous test solutions prepared from 10′000 ppm DMSO stock solutions. After drying the leaves were infested with N2 nymphs. The samples were assessed for mortality and growth inhibition in comparison to untreated samples 5 days after infestation.

[8] = system: Frankliniella occidentalis (Western Flower Thrips); assay: Example B3: Frankliniella occidentalis (Western Flower Thrips): Feeding/Contact Activity; conditions: 168 h, application rate of 200 ppm, population of mixed ages, 7 days after infestation
Description: Example B3: Frankliniella occidentalis (Western Flower Thrips): Feeding/Contact Activity
Sunflower leaf discs were placed on agar in 24-well microtiter plates and sprayed with aqueous test solutions prepared from […] stock solutions. After drying the leaf discs were infested with a Frankliniella population of mixed ages. The samples were assessed for mortality 7 days after infestation.

[9] = system: Myzus persicae (Green Peach Aphid); assay: Example B8: Myzus persicae (Green Peach Aphid): Intrinsic Activity; conditions: 120 h, test rate of 12 ppm, sucrose solution, 5 days after infestation
Description: Example B8: Myzus persicae (Green Peach Aphid): Intrinsic Activity
Test compounds prepared from 10′000 ppm DMSO stock solutions were applied by pipette into 24-well microtiter plates and mixed with sucrose solution. The plates were closed with a stretched Parafilm. A plastic stencil with 24 holes was placed onto the plate and infested pea seedlings were placed directly on the Parafilm. The infested plate was closed with a gel blotting paper and another plastic stencil and then turned upside down. The samples were assessed for mortality 5 days after infestation.

[10] = system: Myzus persicae (Green Peach Aphid); assay: Example B6: Myzus persicae (Green Peach Aphid): Feeding/Contact Activity; conditions: 144 h, application rate of 200 ppm, aphid population of mixed ages, 6 days after infestation
Description: Example B6: Myzus persicae (Green Peach Aphid): Feeding/Contact Activity
Sunflower leaf discs were placed onto agar in a 24-well microtiter plate and sprayed with aqueous test solutions prepared from 10′000 ppm DMSO stock solutions. After drying, the leaf discs were infested with an aphid population of mixed ages. The samples were assessed for mortality 6 days after infestation.

CC(NC(=O)c1cc(C(F)(F)F)nc(C2(C#N)CC2)c1)c1nccnc1-c1ccc(OCC(F)F)cn1 (centres unmarked) [P22, 2-(1-cyanocyclopropyl)-N-[1-[3-[5-(2,2-difluoroethoxy)-2-pyridyl]pyrazin-2-yl]ethyl]-6-(trifluoromethyl)pyridine-4-carboxamide]
≥ 80%: percent control (mortality, anti-feedant effect or growth inhibition) at 200 ppm [1] | mortality at 200 ppm [2] | mortality at 500 ppm [3] | percent control (mortality or growth inhibition) at 200 ppm [4] | percent control (mortality, anti-feedant effect or growth inhibition) at 200 ppm [5] | percent control (mortality or growth inhibition) at 200 ppm [6]

CC(NC(=O)c1cc(C(F)(F)F)cc(C(C)(C)C#N)c1)c1nccnc1-c1ncc(OCC(F)F)cn1 (centres unmarked) [P48, 3-(1-cyano-1-methyl-ethyl)-N-[1-[3-[5-(2,2-difluoroeth-oxy)pyrimidin-2-yl]pyrazin-2-yl]ethyl]-5-(trifluoro-methyl)benzamide]
≥ 80%: percent control (mortality or growth inhibition) at 200 ppm [7] | percent control (mortality, anti-feedant effect or growth inhibition) at 200 ppm [1] | mortality at 200 ppm [8] | mortality at 12 ppm [9] | percent control (mortality or growth inhibition) at 200 ppm [4] | percent control (mortality, anti-feedant effect or growth inhibition) at 200 ppm [5] | percent control (mortality or growth inhibition) at 200 ppm [6]

CC(NC(=O)c1cc(C(F)(F)F)cc(C2(C#N)CC2)c1)c1nccnc1-c1ncc(OCC(F)F)cn1 (centres unmarked) [P49, 3-(1-cyanocyclopropyl)-N-[1-[3-[5-(2,2-difluoroethoxy)pyrimidin-2-yl]pyrazin-2-yl]ethyl]-5-(trifluoromethyl)benzamide]
≥ 80%: percent control (mortality or growth inhibition) at 200 ppm [7] | percent control (mortality, anti-feedant effect or growth inhibition) at 200 ppm [1] | mortality at 200 ppm [10] | mortality at 12 ppm [9] | percent control (mortality or growth inhibition) at 200 ppm [4] | percent control (mortality, anti-feedant effect or growth inhibition) at 200 ppm [5] | percent control (mortality or growth inhibition) at 200 ppm [6]
